# The kinase profiling compilation of Christmann-Franck et al. (2016)
# Legend:
# Test in all cases: KINOMEscan competition binding
# Details in all cases: compound 10.0 µM
# AKT2 (human) = AKT2 (human) (UniProt P31751)
# AKT3 (human) = AKT3 (human) (UniProt Q9Y243)
# AURKC (human) = AURKC (human) (UniProt Q9UQB9)
# BRSK1 (human) = BRSK1 (human) (UniProt Q8TDC3)
# CAMK2A (human) = CAMK2A (human) (UniProt Q9UQM7)
# CAMK2B (human) = CAMK2B (human) (UniProt Q13554)
# CAMK2D (human) = CAMK2D (human) (UniProt Q13557)
# CDC2L2 (human) = CDC2L2 (human) (UniProt Q9UQ88)
# CDK8 (human) = CDK8 (human) (UniProt P49336)
# Chain of CDK8 (human) (P49336 whole entry, looked up): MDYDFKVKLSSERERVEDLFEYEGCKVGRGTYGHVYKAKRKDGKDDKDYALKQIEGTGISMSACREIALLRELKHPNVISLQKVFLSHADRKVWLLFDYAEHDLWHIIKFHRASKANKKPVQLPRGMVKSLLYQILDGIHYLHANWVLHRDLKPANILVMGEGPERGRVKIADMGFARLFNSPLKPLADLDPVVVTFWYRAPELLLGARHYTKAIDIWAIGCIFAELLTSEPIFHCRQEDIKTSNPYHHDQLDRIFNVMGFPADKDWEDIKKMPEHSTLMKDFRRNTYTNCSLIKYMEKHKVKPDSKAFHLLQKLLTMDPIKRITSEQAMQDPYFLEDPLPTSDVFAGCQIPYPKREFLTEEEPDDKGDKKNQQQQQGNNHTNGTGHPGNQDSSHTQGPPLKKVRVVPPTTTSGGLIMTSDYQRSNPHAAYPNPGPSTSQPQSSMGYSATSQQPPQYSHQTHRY
# CDK9 (human) = CDK9 (human) (UniProt P50750)
# CLK1 (human) = CLK1 (human) (UniProt P49759)
# CSNK1G2 (human) = CSNK1G2 (human) (UniProt P78368)
# CSNK1G3 (human) = CSNK1G3 (human) (UniProt Q9Y6M4)
# CSNK2A1 (human) = CSNK2A1 (human) (UniProt P68400)
# Chain of CSNK2A1 (human) (P68400 whole entry, looked up): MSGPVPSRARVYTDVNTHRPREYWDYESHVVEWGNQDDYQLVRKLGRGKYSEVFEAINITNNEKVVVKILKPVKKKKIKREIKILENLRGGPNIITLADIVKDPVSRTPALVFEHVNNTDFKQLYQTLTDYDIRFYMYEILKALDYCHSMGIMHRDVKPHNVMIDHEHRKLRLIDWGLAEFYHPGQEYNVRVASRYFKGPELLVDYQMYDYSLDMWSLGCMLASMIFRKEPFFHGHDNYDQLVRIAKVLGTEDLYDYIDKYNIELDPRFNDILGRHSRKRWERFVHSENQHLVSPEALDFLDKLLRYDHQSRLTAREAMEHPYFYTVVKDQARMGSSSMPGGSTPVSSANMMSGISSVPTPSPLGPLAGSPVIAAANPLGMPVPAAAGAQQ
# CSNK2A2 (human) = CSNK2A2 (human) (UniProt P19784)
# ERBB2 (human) = ERBB2 (human) (UniProt P04626)
# FGR (human) = FGR (human) (UniProt P09769)
# FLT4 (human) = FLT4 (human) (UniProt P35916)
# LATS1 (human) = LATS1 (human) (UniProt O95835)
# LIMK2 (human) = LIMK2 (human) (UniProt P53671)
# MAP4K4 (human) = MAP4K4 (human) (UniProt O95819)
# MAPK6 (human) = MAPK6 (human) (UniProt Q16659)
# MELK (human) = MELK (human) (UniProt Q14680)
# Chain of MELK (human) (Q14680 whole entry, looked up): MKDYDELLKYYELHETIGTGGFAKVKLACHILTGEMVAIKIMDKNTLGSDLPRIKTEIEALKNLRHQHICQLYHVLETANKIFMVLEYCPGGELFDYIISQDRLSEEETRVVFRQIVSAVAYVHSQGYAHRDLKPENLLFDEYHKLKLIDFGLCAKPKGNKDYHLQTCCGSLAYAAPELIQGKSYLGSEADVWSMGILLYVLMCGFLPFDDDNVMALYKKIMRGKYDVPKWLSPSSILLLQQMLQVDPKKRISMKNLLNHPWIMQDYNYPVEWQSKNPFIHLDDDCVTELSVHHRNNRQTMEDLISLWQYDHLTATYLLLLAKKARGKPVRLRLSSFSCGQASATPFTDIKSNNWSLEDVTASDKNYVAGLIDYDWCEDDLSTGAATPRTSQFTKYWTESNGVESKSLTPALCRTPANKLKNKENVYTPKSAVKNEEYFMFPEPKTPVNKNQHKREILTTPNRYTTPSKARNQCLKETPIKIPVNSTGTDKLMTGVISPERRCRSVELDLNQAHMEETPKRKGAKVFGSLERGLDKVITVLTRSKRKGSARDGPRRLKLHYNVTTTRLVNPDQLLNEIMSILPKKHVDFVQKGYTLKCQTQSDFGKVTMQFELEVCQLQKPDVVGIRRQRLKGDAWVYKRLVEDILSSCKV
# MKNK1 (human) = MKNK1 (human) (UniProt Q9BUB5)
# MST4 (human) = MST4 (human) (UniProt Q9P289)
# MYLK (human) = MYLK (human) (UniProt Q15746)
# NLK (human) = NLK (human) (UniProt Q9UBE8)
# NUAK2 (human) = NUAK2 (human) (UniProt Q9H093)
# PAK1 (human) = PAK1 (human) (UniProt Q13153)
# PRKAA1 (human) = PRKAA1 (human) (UniProt Q13131)
# PRKCH (human) = PRKCH (human) (UniProt P24723)
# PRKCQ (human) = PRKCQ (human) (UniProt Q04759)
# Chain of PRKCQ (human) (Q04759 whole entry, looked up): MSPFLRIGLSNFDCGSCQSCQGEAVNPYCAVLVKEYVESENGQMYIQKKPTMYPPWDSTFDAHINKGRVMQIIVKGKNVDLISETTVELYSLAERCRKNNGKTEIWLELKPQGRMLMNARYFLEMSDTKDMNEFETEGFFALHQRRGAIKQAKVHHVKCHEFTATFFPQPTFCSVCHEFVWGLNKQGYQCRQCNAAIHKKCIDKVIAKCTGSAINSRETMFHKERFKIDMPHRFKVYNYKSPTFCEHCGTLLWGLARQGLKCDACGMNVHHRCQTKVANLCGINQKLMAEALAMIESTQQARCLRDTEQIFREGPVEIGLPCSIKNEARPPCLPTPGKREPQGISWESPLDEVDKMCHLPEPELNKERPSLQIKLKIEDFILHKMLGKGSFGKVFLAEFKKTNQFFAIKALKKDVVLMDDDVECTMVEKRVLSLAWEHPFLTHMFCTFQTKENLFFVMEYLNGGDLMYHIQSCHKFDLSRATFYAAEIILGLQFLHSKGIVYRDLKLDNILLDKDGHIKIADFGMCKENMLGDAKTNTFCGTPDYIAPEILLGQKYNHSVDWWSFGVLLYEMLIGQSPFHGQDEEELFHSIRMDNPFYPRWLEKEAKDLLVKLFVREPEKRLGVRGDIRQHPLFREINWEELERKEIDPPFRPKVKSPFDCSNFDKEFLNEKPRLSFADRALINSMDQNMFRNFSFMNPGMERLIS
# PRKD1 (human) = PRKD1 (human) (UniProt Q15139)
# RIOK1 (human) = RIOK1 (human) (UniProt Q9BRS2)
# RIPK1 (human) = RIPK1 (human) (UniProt Q13546)
# Chain of RIPK1 (human) (Q13546 whole entry, looked up): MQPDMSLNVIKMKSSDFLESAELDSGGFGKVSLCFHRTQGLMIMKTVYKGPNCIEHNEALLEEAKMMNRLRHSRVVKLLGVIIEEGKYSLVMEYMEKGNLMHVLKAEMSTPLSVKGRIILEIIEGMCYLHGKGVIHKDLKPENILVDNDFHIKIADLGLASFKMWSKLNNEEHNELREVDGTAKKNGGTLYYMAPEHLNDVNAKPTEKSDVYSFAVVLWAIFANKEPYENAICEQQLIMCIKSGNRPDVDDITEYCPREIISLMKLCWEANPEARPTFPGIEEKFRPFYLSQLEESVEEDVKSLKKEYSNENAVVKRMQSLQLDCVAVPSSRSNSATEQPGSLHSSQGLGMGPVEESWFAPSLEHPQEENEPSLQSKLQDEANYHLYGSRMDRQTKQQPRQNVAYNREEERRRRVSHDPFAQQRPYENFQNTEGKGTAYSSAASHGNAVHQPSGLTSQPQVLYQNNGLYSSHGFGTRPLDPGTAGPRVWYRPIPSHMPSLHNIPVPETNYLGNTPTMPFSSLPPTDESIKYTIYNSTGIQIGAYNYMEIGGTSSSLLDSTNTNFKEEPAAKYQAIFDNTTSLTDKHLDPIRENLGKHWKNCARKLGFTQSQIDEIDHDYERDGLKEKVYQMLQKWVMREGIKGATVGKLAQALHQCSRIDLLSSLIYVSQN
# RPS6KA4 KD2 (human) = RPS6KA4 KD2 (human) (UniProt O75676)
# SIK2 (human) = SIK2 (human) (UniProt Q9H0K1)
# Chain of SIK2 (human) (Q9H0K1 whole entry, looked up): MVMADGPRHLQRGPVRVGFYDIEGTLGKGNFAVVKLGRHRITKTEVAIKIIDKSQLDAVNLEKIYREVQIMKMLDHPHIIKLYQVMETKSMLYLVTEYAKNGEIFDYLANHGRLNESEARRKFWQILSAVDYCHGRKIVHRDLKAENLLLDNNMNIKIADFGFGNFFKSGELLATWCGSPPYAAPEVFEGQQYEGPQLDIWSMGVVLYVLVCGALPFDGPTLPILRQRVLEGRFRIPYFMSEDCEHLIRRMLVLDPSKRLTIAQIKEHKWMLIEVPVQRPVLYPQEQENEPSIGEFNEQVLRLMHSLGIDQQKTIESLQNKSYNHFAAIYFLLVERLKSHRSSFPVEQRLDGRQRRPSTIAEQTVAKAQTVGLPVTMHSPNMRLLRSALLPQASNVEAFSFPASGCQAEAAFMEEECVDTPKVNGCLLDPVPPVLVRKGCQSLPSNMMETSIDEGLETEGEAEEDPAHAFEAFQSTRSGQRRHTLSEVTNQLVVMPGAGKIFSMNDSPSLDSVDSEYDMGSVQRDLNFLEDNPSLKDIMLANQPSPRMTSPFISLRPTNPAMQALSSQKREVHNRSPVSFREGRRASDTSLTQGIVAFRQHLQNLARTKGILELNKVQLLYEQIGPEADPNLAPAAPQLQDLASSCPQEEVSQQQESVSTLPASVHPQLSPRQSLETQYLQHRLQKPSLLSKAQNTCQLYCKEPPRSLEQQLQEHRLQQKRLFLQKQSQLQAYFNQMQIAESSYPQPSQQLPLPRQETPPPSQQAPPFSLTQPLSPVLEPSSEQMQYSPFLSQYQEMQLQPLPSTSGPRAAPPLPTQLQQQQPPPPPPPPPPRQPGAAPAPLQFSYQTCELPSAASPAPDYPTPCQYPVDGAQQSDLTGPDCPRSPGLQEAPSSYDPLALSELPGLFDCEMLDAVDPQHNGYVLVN
# SRPK1 (human) = SRPK1 (human) (UniProt Q96SB4)
# STK35 (human) = STK35 (human) (UniProt Q8TDR2)
# TNIK (human) = TNIK (human) (UniProt Q9UKE5)
# Chain of CAMK2A (human) (Q9UQM7 whole entry, looked up): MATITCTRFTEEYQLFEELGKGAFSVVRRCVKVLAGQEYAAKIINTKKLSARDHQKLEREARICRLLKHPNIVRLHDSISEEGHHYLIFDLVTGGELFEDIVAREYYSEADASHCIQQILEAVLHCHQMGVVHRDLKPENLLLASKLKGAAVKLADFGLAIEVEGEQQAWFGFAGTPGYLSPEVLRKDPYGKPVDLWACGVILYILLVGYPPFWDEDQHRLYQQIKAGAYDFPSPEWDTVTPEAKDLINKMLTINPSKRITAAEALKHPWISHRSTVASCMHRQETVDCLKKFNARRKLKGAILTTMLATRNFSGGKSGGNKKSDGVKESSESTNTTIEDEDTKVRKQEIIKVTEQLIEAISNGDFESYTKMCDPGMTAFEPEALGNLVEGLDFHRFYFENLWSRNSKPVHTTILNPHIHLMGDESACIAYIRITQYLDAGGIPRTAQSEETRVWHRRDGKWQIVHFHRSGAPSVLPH
# Chain of AKT2 (human) (P31751 whole entry, looked up): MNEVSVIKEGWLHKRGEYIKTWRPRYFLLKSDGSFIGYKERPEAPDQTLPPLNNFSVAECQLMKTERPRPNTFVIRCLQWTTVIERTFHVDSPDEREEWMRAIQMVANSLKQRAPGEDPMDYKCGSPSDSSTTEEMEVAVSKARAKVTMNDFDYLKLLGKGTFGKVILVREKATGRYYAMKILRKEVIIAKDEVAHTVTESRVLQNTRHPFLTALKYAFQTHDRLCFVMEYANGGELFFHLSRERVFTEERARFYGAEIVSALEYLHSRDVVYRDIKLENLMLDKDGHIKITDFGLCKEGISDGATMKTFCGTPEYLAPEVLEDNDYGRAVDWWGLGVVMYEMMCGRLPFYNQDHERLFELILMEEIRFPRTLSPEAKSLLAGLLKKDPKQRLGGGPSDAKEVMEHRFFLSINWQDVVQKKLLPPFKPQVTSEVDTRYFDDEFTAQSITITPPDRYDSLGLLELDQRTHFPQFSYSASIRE
SMILES,"kinase still bound, per cent of control (AKT2 (human)) [%]","kinase still bound, per cent of control (AKT3 (human)) [%]","kinase still bound, per cent of control (AURKC (human)) [%]","kinase still bound, per cent of control (BRSK1 (human)) [%]","kinase still bound, per cent of control (CAMK2A (human)) [%]","kinase still bound, per cent of control (CAMK2B (human)) [%]","kinase still bound, per cent of control (CAMK2D (human)) [%]","kinase still bound, per cent of control (CDC2L2 (human)) [%]","kinase still bound, per cent of control (CDK8 (human)) [%]","kinase still bound, per cent of control (CDK9 (human)) [%]","kinase still bound, per cent of control (CLK1 (human)) [%]","kinase still bound, per cent of control (CSNK1G2 (human)) [%]","kinase still bound, per cent of control (CSNK1G3 (human)) [%]","kinase still bound, per cent of control (CSNK2A1 (human)) [%]","kinase still bound, per cent of control (CSNK2A2 (human)) [%]","kinase still bound, per cent of control (ERBB2 (human)) [%]","kinase still bound, per cent of control (FGR (human)) [%]","kinase still bound, per cent of control (FLT4 (human)) [%]","kinase still bound, per cent of control (LATS1 (human)) [%]","kinase still bound, per cent of control (LIMK2 (human)) [%]",also measured
C=CC(=O)Nc1cccc(Nc2nc(N[C@H]3CC[C@H](N(C)C)CC3)nc3c2ncn3C(C)C)c1,84,91,69,88,34,80,53,98,100,100,1,7.9,8.2,54,48,100,14,58,100,100,"kinase still bound, per cent of control (MAP4K4 (human)): 53%; kinase still bound, per cent of control (MAPK6 (human)): 100%; kinase still bound, per cent of control (MELK (human)): 25%; kinase still bound, per cent of control (MKNK1 (human)): 32%; kinase still bound, per cent of control (MST4 (human)): 16%; kinase still bound, per cent of control (MYLK (human)): 55%; kinase still bound, per cent of control (NLK (human)): 96%; kinase still bound, per cent of control (NUAK2 (human)): 45%; kinase still bound, per cent of control (PAK1 (human)): 78%; kinase still bound, per cent of control (PRKAA1 (human)): 78%; kinase still bound, per cent of control (PRKCH (human)): 91%; kinase still bound, per cent of control (PRKCQ (human)): 3.6%; kinase still bound, per cent of control (PRKD1 (human)): 100%; kinase still bound, per cent of control (RIOK1 (human)): 31%; kinase still bound, per cent of control (RIPK1 (human)): 100%; kinase still bound, per cent of control (RPS6KA4 KD2 (human)): 52%; kinase still bound, per cent of control (SIK2 (human)): 69%; kinase still bound, per cent of control (SRPK1 (human)): 52%; kinase still bound, per cent of control (STK35 (human)): 80%; kinase still bound, per cent of control (TNIK (human)): 35%"
Cn1c(=O)n(-c2ccc(C(C)(C)C#N)cc2)c2c3cc(-c4cnc5ccccc5c4)ccc3ncc21,100,100,100,100,100,100,100,100,100,100,23,100,100,100,100,100,100,100,100,100,"kinase still bound, per cent of control (MAP4K4 (human)): 100%; kinase still bound, per cent of control (MAPK6 (human)): 100%; kinase still bound, per cent of control (MELK (human)): 100%; kinase still bound, per cent of control (MKNK1 (human)): 100%; kinase still bound, per cent of control (MST4 (human)): 100%; kinase still bound, per cent of control (MYLK (human)): 100%; kinase still bound, per cent of control (NLK (human)): 100%; kinase still bound, per cent of control (NUAK2 (human)): 100%; kinase still bound, per cent of control (PAK1 (human)): 100%; kinase still bound, per cent of control (PRKAA1 (human)): 100%; kinase still bound, per cent of control (PRKCH (human)): 100%; kinase still bound, per cent of control (PRKCQ (human)): 100%; kinase still bound, per cent of control (PRKD1 (human)): 100%; kinase still bound, per cent of control (RIOK1 (human)): 100%; kinase still bound, per cent of control (RIPK1 (human)): 100%; kinase still bound, per cent of control (RPS6KA4 KD2 (human)): 100%; kinase still bound, per cent of control (SIK2 (human)): 100%; kinase still bound, per cent of control (SRPK1 (human)): 100%; kinase still bound, per cent of control (STK35 (human)): 100%; kinase still bound, per cent of control (TNIK (human)): 100%"
